# Laboratory results as given in patent publication US12653191B2, “Active compound combinations” (Bayer Aktiengesellschaft, priority 2020, dated 2026).
# Where “and” joins values, the source holds several entries; their conditions need not be identical. Identical values can stand only once. Like-named read-outs stand apart in the source and are kept apart here.
# Tests used:
# [1] = system: Alternaria alternata; assay: in vitro-Test with fungal microorganisms, Method B (tables A13-A22); format: cell-based
# Procedure, shortened: (§1)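 Efficacy, relative to untreated control (0% = growth as in control, 100% = no growth), from photometric growth measurement at 600 nm after 3 to 7 days at 20° C., 85% relative humidity. Compound applied in methanol+emulsifier, solvent evaporated, then spore/mycelium-amended liquid medium added.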
# [2] = system: Botrytis cinerea; assay: in vitro-Test with fungal microorganisms, Method B (tables B15-B18); format: cell-based
# Procedure, shortened: as §1
# [3] = system: Cercospora beticola; assay: in vitro-Test with fungal microorganisms, Method B (tables C11-C20); format: cell-based
# Procedure, shortened: as §1
# [4] = system: Cordana musae; assay: in vitro-Test with fungal microorganisms, Method B (tables E9-E16); format: cell-based; settings: single active
# Procedure, shortened: as §1
# [5] = system: Diaporthe citri; assay: in vitro-Test with fungal microorganisms, Method B (tables F12-F15); format: cell-based
# Protocol: (§2) Example: In Vitro-Test with Fungal Microorganisms
# (§3) Wells of 96-well microtiter plates are filled with 30 μl of a preparation of test compound or compound combination in methanol+emulsifier alkylaryl-polyglycol-ether. Thereafter, the solvent is evaporated in a hood. At the next step, 200 μl of liquid growth medium is given, that has been amended with an appropriate concentration of spores or mycelium suspension of the test fungus.
# (§4) With the aid of a photometer, the extinction in all wells is measured at the wavelength of 600 nm.
# (§5) The microtiter plates are incubated for 3 to 7 days at 20° C. and 85% relative humidity. After the incubation inhibition of growth is determined photometrically. Efficacy is calculated in relation to the untreated control, 0% efficacy means fungal growth as high as in untreated control while 100% efficacy means no fungal growth is measured.
# (§6) The data in tables A1 to A12, B1 to B14, C1 to C10, D1 to D8, E1 to E8, F1 to F11, G1 to G4, H1 to H4 and I1 to I5 were collected according to Method A. The data in tables A13 to A22, B15 to B18, C11 to C20, E9 to E16, F12 to F15, G5 to G15, H5 to H8, I6 to I11 and J1 to J11 were collected according to Method B.
# [6] = system: Fusarium culmorum; assay: in vitro-Test with fungal microorganisms, Method B (tables G5-G15); format: cell-based
# Procedure, shortened: as §1
# [7] = system: Parastagonospora nodorum; assay: in vitro-Test with fungal microorganisms, Method B (tables H5-H8); format: cell-based
# Protocol: as §2, §3, §4, §5, §6
# [8] = system: Ustilago segetum var. avenae; assay: in vitro-Test with fungal microorganisms, Method B (tables I6-I11); format: cell-based
# Procedure, shortened: as §1
# [9] = system: Colletotrichum coccodes; assay: in vitro-Test with fungal microorganisms, Method B (tables J1-J11); format: cell-based
# Procedure, shortened: as §1
# [10] = system: Alternaria alternate; assay: in vitro-Test with fungal microorganisms, Method A (tables A1-A12); format: cell-based, Alternaria alternata; settings: Alternaria, applied alone, read-out: Efficacy %
# Procedure, shortened: (§7)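 Test compound in methanol plus alkylaryl-polyglycol-ether emulsifier was dried into wells, then liquid potato dextrose medium containing spores or mycelium of the fungus was added. Plates were incubated at 20° C and 85% relative humidity; growth read at 620 nm after 3-5 days, efficacy relative to untreated control.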
# [11] = system: Botrytis cinerea; assay: in vitro-Test with fungal microorganisms, Method A (tables B1-B14); format: cell-based; settings: Botrytis cinerea, alone, read-out: Efficacy %
# Procedure, shortened: as §7
# [12] = system: Cercospora beticola; assay: in vitro-Test with fungal microorganisms, Method A (tables C1-C10); format: cell-based; settings: Cercospora beticola, read-out: Efficacy %
# Procedure, shortened: as §7
# [13] = system: Colletotrichum lindemuthianum; assay: in vitro-Test with fungal microorganisms, Method A (tables D1-D8); format: cell-based; settings: Colletotrichum lindemuthianum, mixing partner alone, read-out: Efficacy %
# Procedure, shortened: as §7
# [14] = system: Diaporthe citri; assay: in vitro-Test with fungal microorganisms, Method A (tables F1-F11); format: cell-based; settings: Diaporthe citri, read-out: Efficacy
# Procedure, shortened: as §7
# [15] = single active compound, 0.2 ppm
smiles,measurement,setting,value
"Cc1cccc(-n2nnn(C)c2=O)c1COc1ccn(-c2ccc(Cl)cc2)n1 [(3.030) metyltetraprole, metyltetraprole]",Efficacy,[1]; 0.008 ppm,0%
same,Efficacy,[1]; 1 ppm,87%
same,Efficacy %,[2]; 0.008 ppm alone,7%
same,Efficacy %,[2]; 0.04 ppm alone,11%
same,Efficacy %,[2]; 0.2 ppm alone,7%
same,Efficacy %,[2]; 1 ppm alone,33%
same,Efficacy %,"[3]; single compound, 0.04 ppm",100%
same,Efficacy %,"[3]; single compound, 0.2 ppm",100%
same,Efficacy,[4]; 0.008 ppm,0%
same,Efficacy,[4]; 0.04 ppm,0%
same,Efficacy,[4]; 0.2 ppm,19%
same,Efficacy,[4]; 1 ppm,70%
same,Efficacy,"[5]; Table F14, 0.2 ppm alone",86%
same,Efficacy,[6]; 0.2 ppm alone,13%
same,Efficacy,"[6]; single active compound, 0.008 ppm",7% and 0%
same,Efficacy,"[6]; single active compound, 0.04 ppm",8% and 0%
same,Efficacy,[6]; [15],6% and 5%
same,Efficacy,"[6]; single active compound, 1 ppm",8% and 2%
same,Efficacy,[7]; 0.04 ppm,38%
same,Efficacy,[7]; 1 ppm,84%
same,Efficacy %,[8]; 0.2 ppm,0%
same,Efficacy %,[9]; single active compound at 0.04 ppm,0%
same,Efficacy %,[9]; single active compound at 0.2 ppm,1%
"COc1cc(C)c(C(=O)c2c(OC)ccc(Br)c2C)c(OC)c1OC [(15.016) metrafenone, metrafenone]",inhibition of growth at 0.8 ppm,[10]; 0.8 ppm,0%
same,inhibition of growth at 4 ppm,[10]; 4 ppm,0%
same,inhibition of growth at 20 ppm,[10]; 20 ppm,11%
same,Efficacy,[1]; 0.2 ppm,3%
same,inhibition of growth at 0.2 ppm,"[1]; Alternaria alternata, 0.2 ppm, read-out: Efficacy",3%
same,inhibition of growth at 1 ppm,"[1]; Alternaria alternata, 1 ppm, read-out: Efficacy",6%
same,inhibition of growth at 5 ppm,"[1]; Alternaria alternata, 5 ppm, read-out: Efficacy",16%
same,inhibition of growth at 1 ppm,"[1]; Alternaria alternata, single compound, 1 ppm, read-out: Efficacy",0%
same,inhibition of growth at 4 ppm,[11]; 4.0 ppm,0%
same,inhibition of growth at 20 ppm,[11]; 20.0 ppm,0%
same,inhibition of growth at 0.8 ppm,[12]; 0.8 ppm,10%
same,inhibition of growth at 4 ppm,[12]; 4.0 ppm,0%
same,inhibition of growth at 20 ppm,[12]; 20.0 ppm,0%
same,inhibition of growth at 0.2 ppm,"[3]; Cercospora beticola, 0.2 ppm, read-out: Efficacy %",0%
same,inhibition of growth at 1 ppm,"[3]; Cercospora beticola, 1 ppm, read-out: Efficacy %",0%
same,inhibition of growth at 5 ppm,"[3]; Cercospora beticola, read-out: Efficacy %",10%
same,inhibition of growth at 0.2 ppm,"[3]; Cercospora beticola, single compound, 0.2 ppm, read-out: Efficacy %",0%
same,inhibition of growth at 5 ppm,"[3]; Cercospora beticola, single compound, read-out: Efficacy %",1%
same,inhibition of growth at 0.8 ppm,[13]; 0.8 ppm,10%
same,inhibition of growth at 4 ppm,[13]; 4.0 ppm,12%
same,inhibition of growth at 20 ppm,[13]; 20.0 ppm,21%
same,inhibition of growth at 0.04 ppm,"[4]; Neocordana musae, 0.04 ppm, read-out: Efficacy",0%
same,inhibition of growth at 0.2 ppm,"[4]; Neocordana musae, 0.2 ppm, read-out: Efficacy",0%
same,inhibition of growth at 1 ppm,"[4]; Neocordana musae, 1 ppm, read-out: Efficacy",0%
same,inhibition of growth at 5 ppm,"[4]; Neocordana musae, 5 ppm, read-out: Efficacy",11%
same,inhibition of growth at 0.8 ppm,"[14]; Table F11, 0.8 ppm alone",0%
same,inhibition of growth at 4 ppm,"[14]; Table F11, 4.0 ppm alone",0%
same,inhibition of growth at 20 ppm,"[14]; Table F11, 20.0 ppm alone",0%
same,inhibition of growth at 0.8 ppm,"[14]; applied alone, 0.8 ppm",0%
same,inhibition of growth at 4 ppm,"[14]; applied alone, 4.0 ppm",10%
same,inhibition of growth at 20 ppm,"[14]; applied alone, 20.0 ppm",0%
same,Efficacy,"[5]; Table F12, 1 ppm alone",3%
same,Efficacy,"[5]; Table F12, 5 ppm alone",0%
same,Efficacy,"[5]; Table F14, 0.04 ppm alone",0%
same,Efficacy,"[5]; Table F14, 0.2 ppm alone",0%
same,Efficacy,"[5]; Table F14, 1 ppm alone",0%
same,Efficacy,"[5]; Table F14, 5 ppm alone",0%
same,inhibition of growth at 1 ppm,"[6]; Fusarium culmorum, 1 ppm, alone, read-out: Efficacy",4%
same,inhibition of growth at 0.04 ppm,"[6]; Fusarium culmorum, single active compound, 0.04 ppm, read-out: Efficacy",0%
same,inhibition of growth at 0.2 ppm,"[6]; Fusarium culmorum, single active compound, 0.2 ppm, read-out: Efficacy",0%
same,inhibition of growth at 1 ppm,"[6]; Fusarium culmorum, single active compound, 1 ppm, read-out: Efficacy",7%
same,inhibition of growth at 5 ppm,"[6]; Fusarium culmorum, single active compound, 5 ppm, read-out: Efficacy",13%
same,Efficacy,"[6]; single active compound, 5 ppm",13%
same,inhibition of growth at 0.04 ppm,"[7]; Parastagonospora nodorum, 0.04 ppm, read-out: Efficacy",0%
same,inhibition of growth at 0.2 ppm,"[7]; Parastagonospora nodorum, 0.2 ppm, read-out: Efficacy",0%
same,inhibition of growth at 1 ppm,"[7]; Parastagonospora nodorum, 1 ppm, read-out: Efficacy",0%
same,inhibition of growth at 5 ppm,"[7]; Parastagonospora nodorum, 5 ppm, read-out: Efficacy",32%
same,inhibition of growth at 0.04 ppm,"[8]; 0.04 ppm, read-out: Efficacy %",4%
same,inhibition of growth at 0.2 ppm,"[8]; 0.2 ppm, read-out: Efficacy %",0%
same,inhibition of growth at 5 ppm,"[9]; Colletotrichum coccodes, single active compound at 5 ppm, read-out: Efficacy %",2%
"COCC(=O)N(c1c(C)cccc1C)[C@H](C)C(=O)OC [(12.004) metalaxyl-M, metalaxyl-M (mefenoxam)]",Efficacy,[1]; 4 ppm,10%
same,Efficacy %,"[2]; 0.8 ppm, alone",5%
same,Efficacy %,[2]; 4 ppm alone,3%
same,Efficacy %,[2]; 20 ppm alone,4%
same,Efficacy %,[2]; 100 ppm alone,13%
same,Efficacy %,[3]; 4 ppm,10%
same,Efficacy %,[3]; 20 ppm,0%
same,Efficacy %,"[3]; single compound, 20 ppm",0%
same,Efficacy,[4]; 0.8 ppm,0%
same,Efficacy,[4]; 4 ppm,0% and 9%
same,Efficacy,[4]; 20 ppm,0% and 8%
same,Efficacy,"[5]; Table F14, 0.8 ppm alone",0%
same,Efficacy,"[5]; Table F14, 4 ppm alone",0%
same,Efficacy,"[5]; Table F14, 20 ppm alone",0%
same,Efficacy,"[6]; 0.8 ppm, alone",0%
same,Efficacy,[6]; 4 ppm alone,0%
same,Efficacy,"[6]; single active compound, 100 ppm",22% and 23%
same,Efficacy,[7]; 0.8 ppm,12%
same,Efficacy,[7]; 4 ppm,8%
same,Efficacy,[7]; 20 ppm,3%
same,Efficacy %,"[8]; 0.8 ppm, listed as (12.004) metalaxyl-m",11%
same,Efficacy %,[8]; 4 ppm,8%
same,Efficacy %,[8]; 20 ppm,12%
"Cc1nn(C)c(F)c1C(=O)Nc1ccccc1C(C)CC(C)C (centres unmarked) [(2.017) penflufen, penflufen]",Efficacy,[1]; 0.2 ppm,22%
same,Efficacy,[1]; 5 ppm,72%
same,Efficacy %,[2]; 0.04 ppm alone,0%
same,Efficacy %,[2]; 5 ppm alone,70%
same,Efficacy %,"[3]; single compound, 1 ppm",0%
same,Efficacy,[4]; 0.04 ppm,0%
same,Efficacy,[4]; 0.2 ppm,0%
same,Efficacy,[4]; 1 ppm,0%
same,Efficacy,"[5]; Table F15, 0.04 ppm alone",0%
same,Efficacy,"[5]; Table F15, 0.2 ppm alone",2%
same,Efficacy,"[5]; Table F15, 1 ppm alone",0%
same,Efficacy,"[5]; Table F15, 5 ppm alone",3%
same,Efficacy,[6]; 0.04 ppm alone,4%
same,Efficacy,[6]; [15],10% and 2%
same,Efficacy,"[6]; single active compound, 1 ppm",11%
same,Efficacy,"[6]; single active compound, 5 ppm",11% and 8%
same,Efficacy,[7]; 0.04 ppm,0%
same,Efficacy,[7]; 0.2 ppm,5%
same,Efficacy %,[9]; single active compound at 1 ppm,0%
same,Efficacy %,[9]; single active compound at 5 ppm,27%
